Laboratory results: US10722532B2, “Polymer-conjugated METAP2 inhibitors, and therapeutic methods of use thereof” (SynDevRx, Inc., priority 2010, dated 2020)
Values after ≈ are worked out from the molar mass of the structure shown. Where two headings read alike, the source gives them in different places.

How the values were obtained:
Cathepsin B = target: T1, Cathepsin B (Bos taurus, UniProt P07688); test: Cathepsin B release of fumagillol analogs from HPMA conjugates; type: in vitro ADME; conditions: 40 nM Cathepsin B, approximately 2.5 mg/mL test agent, pH 5.5 or 6.8, 37° C., 0-24 hour, LC/MS/MS
T1 construct: purchased Sigma C6286
Description: Cathepsin B (Sigma Cat # C6286 Lot #025K7672) was diluted to a 10× concentration in activation buffer consisting of approximately 400 nM enzyme, 30 mM DTT, 15 mM EDTA and acetate buffer, pH=5.5 for 15 minutes at room temperature.
The HPMA conjugates were made into a 10× stock solution in pH 5.5 buffer. The final reaction was performed by diluting the enzyme and substrate 10 fold into either buffer at pH=5.5 or pH=6.8. The final enzymatic reaction consisted of 40 nM Cathepsin B, approximately 2.5 mg/mL test agent, and buffer at 37° C. The reaction was stopped at 0, 2, 6, and 24 hour. To stop the reaction, 3 volumes of ice-cold methanol containing propranolol internal standard (at 1.0 μM) was added and left on ice. The samples were then analyzed by LC/MS/MS.

A549 cells [1] = test: A549 human non-small cell lung carcinoma cell viability assay (CellTiter-Glo); type: cell-based; conditions: small molecules, 72 hours exposure
Description: (§1) Test compounds, small molecules or polymer conjugates, were dissolved in dimethyl sulfoxide to a stock concentration of 5 mg/mL. The test agents were then diluted to an intermediate concentration at 200 μg/mL in 10% DMSO. Further dilutions were completed serially 3-fold in 10% DMSO to produce 12 decreasing concentrations for in-vitro analysis. To achieve the target concentrations of the in-vitro assays, […] of the intermediate drug preparation was delivered to the cells (seeded in a volume of 50 μL). The final DMSO concentration for the tests was 0.2% for all doses of test agent.
(§2) Cells were exposed to twelve increasing concentrations of formulated test agent from 2×10^−6 to 4.0 μg/mL for 72 hours. Following 72 hour exposure, 25 μL of CellTiter-Glo® Reagent was added to each well. The plates were incubated for 60 minutes at 37° C. in a humidified incubator. After incubation, luminescence was recorded using the Molecular Devices AnalystGT multi-mode reader.
(§3) Data are expressed as the percent cell growth of the untreated (vehicle) control calculated from the luminescence signals. The surviving fraction of cells is determined by dividing the mean luminescence values of the test agents by the mean luminescence values of untreated control. The inhibitory concentration value for the test agent(s) and control were estimated using Prism 5 software (GraphPad Software, Inc.) by curve-fitting the data using the non-linear regression analysis.
The human tumor cell lines A549 and HCT-116 were obtained from American Type Culture Collection (Manassas, Va.). The Human umbilical vein epithelial cells (HUVEC) were obtained from Lonza (Basel, Switzerland). The A549 cells were maintained RPMI 1640 w/L-glut supplemented with 5% FBS. The HCT-116 cells were maintained in McCoy's 5a supplemented with 5% FBS. The HUVEC line was grown in Endothelial Growth Medium with supplements and growth factors (BBE, hydrocortisone, hEGF, FBS and gentamicin/amphotericin-B). All cells were house in an atmosphere of 5% CO2 at 37° C. Cells were dissociated with 0.05% Trypsin and 0.02% EDTA.
(§4) The human tumor cell line A549 was obtained from American Type Culture Collection (Manassas, Va.). The A549 cells were maintained RPMI 1640 w/L-glut supplemented with 5% FBS. A549 cells were seeded at 500 cells per well 24 hours prior to test agent exposure in a volume of 50 μL. The cells were housed in an atmosphere of 5% CO2 at 37° C. Cells were dissociated with 0.05% Trypsin and 0.02% EDTA.

HCT-116 cells = test: HCT-116 human colon tumor cell viability assay (CellTiter-Glo); type: cell-based; conditions: small molecules, 72 hours exposure
Description: as §1, §3
as §4, with “cell lines” for “cell line”, “A549 and HCT-116 were” for “A549 was”, “The HCT-116” for “The A549”, “maintained in McCoy's 5a” for “maintained RPMI 1640 w/L-glut”, “FBS. HCT-116” for “FBS. A549”
as §2, with “2.3×10^−6” for “2×10^−6”, “4.02” for “4.0”

HUVEC cells = test: Human umbilical vein epithelial cell viability assay (CellTiter-Glo); type: cell-based; conditions: small molecules, 72 hours exposure
Description: as §1, §3
The Human umbilical vein epithelial cells (HUVEC) were obtained from Lonza (Basel, Switzerland). The HUVEC line was grown in Endothelial Growth Medium with supplements and growth factors (BBE, hydrocortisone, hEGF, FBS and gentamicin/amphotericin-B). All cells were housed in an atmosphere of 5% CO2 at 37° C. Cells were dissociated with 0.05% Trypsin and 0.02% EDTA.
as §2, with “HUVEC cells were seeded at 1000 cells per well 24 hours prior to test agent exposure in a volume of […]. Cells” for “Cells”, “2.3×10^−6” for “2×10^−6”, “4.02” for “4.0”, “[…]” for “25 μL”, “CellTiter-Glog®” for “CellTiter-Glo®”

[2] = system: A549 tumor cells vs normal HUVEC cells; test: A549/HUVEC selectivity (ratio of IC50s); type: cell-based, human
A549 cells [3] = type: in vitro ADME, human
Description: Cells were treated as in Example 51 except that at the end of 72 hour exposure to test agent, the cells were frozen (−70° C.) and stored for subsequent evaluation by LC/MS.

B16-F10 tumor cells = test: In vivo B16-F10 murine melanoma, lung metastases counts; set-up: species or system C57B16 female mice; conditions: 30 mg/kg, qod; sacrificed after 15 days
Description: C57B16 female mice (N=8) were injected (tail vein) with 1×10^5 B16-F10 tumor cells. After one day, mice were treated with polymer conjugates as solutions in saline (IV administration, q4d, four doses except that in one group O-7175 was administered as a single dose on day 1). TNP-470 was used as a positive control, saline as a negative control. Mice were sacrificed after 15 days. Treatment outcomes were assessed by counting lung metastases.

[4] = for T ½: buffer; for Natural Rate Constant: 37° C., 5 μM
Description: At the appropriate time points, a 50 μL sample was withdrawn and diluted with three volumes of methanol containing propranolol as an internal standard (one solution was made for the entire study). The concentration of carbamoylfumagillol in the solution was analyzed by LC/MS/MS over seven days.

[5] = in man; as metabolite of TNP-470; cited from earlier work

Row | Compound | products released by Cathepsin B (Cathepsin B) | A549 IC50 Average (A549 cells [1]) | HCT116 IC50 Average (HCT-116 cells) | HUVEC IC50 Average (HUVEC cells) | A549/HUVEC IC50 ratio [2] | also measured
1 | poly(HPMA-co-MA-GFLG-NHCH2CH2N(Me)CH2C(O)NHC(O)2-fumagill-6-yl) | fumagillol, carbamoylfumagillol, and fumagil-6-yl (2-aminoethyl)methylcarbamate |  |  |  |  | 
2 | CO[C@@H]1[C@H](O)CC[C@]2(CO2)[C@H]1[C@@]1(C)O[C@@H]1CC=C(C)C [Fumagillol] |  | 30.1 ng/mL | 45.8 ng/mL | 18.9 ng/mL | 1.59 | 
3 | poly[HPMA-co-MA-GFLG-N-(6-aminohexyl)carbamoylfumagillol] | N-(6-aminohexyl)carbamoylfumagillol and fumagil-6-yl {6-[(aminoacetyl)amino]hexyl}carbamate |  |  |  |  | Metabolites identified from the treated cells (A549 cells [3]): N-(6-aminohexyl)carbamoylfumagillol,fumagill-6-yl {6-[(aminoacetyl)amino]hexyl}carbamate, and the epoxide hydrolysis product, (35′,7aR)-7a-(hydroxymethyl)-4-methoxy-3-methyl-2-(3-methylbut-2-en-1-yl)octahydro-1-benzofuran-3-ol-5-yl 6-aminohexyl carbamate
4 | CO[C@@H]1[C@H](OC(=O)NC(=O)CCl)CC[C@]2(CO2)[C@H]1[C@@]1(C)O[C@@H]1CC=C(C)C [TNP-470, chloroacetylcarbamoylfumagillol] |  |  |  |  | 58.53 | IC50 (A549 cells [1]; Homo sapiens, A549): 8.97 ng/mL (≈ 22.3 nM); IC50 (HCT-116 cells; Homo sapiens, HCT-116, read-out: HCT116 IC50 Average): 2.64 ng/mL (≈ 6.57 nM); IC50 (HUVEC cells; Homo sapiens, HUVEC): 0.153 ng/mL (≈ 0.381 nM); Metastases Counts (B16-F10 tumor cells): 39.5
5 | CO[C@@H]1[C@H](OC(N)=O)CC[C@]2(CO2)[C@H]1[C@@]1(C)O[C@@H]1CC=C(C)C [Carbamoylfumagillol] |  | 2.89 ng/mL | 1.035 ng/mL | 0.086 ng/mL |  | T ½ ([4]; pH 4): 5.38 days; T ½ ([4]; pH 5.3): 17 days; T ½ ([4]; pH 6.7): 30.3 days; T ½ ([4]; pH 8): 25.5 days; Natural Rate Constant ([4]; pH 4.0, 10 mM sodium acetate buffer): 0.0054 h⁻¹; Natural Rate Constant ([4]; pH 5.3, 10 mM sodium acetate buffer): 0.0017 h⁻¹; decomposition ([4]; pH 5.3 to 8.0, 37° C., over the seven day period): less than 20%; Natural Rate Constant ([4]; pH 6.7, potassium phosphate buffer): 0.0010 h⁻¹; Natural Rate Constant ([4]; pH 8.0, potassium phosphate buffer): 0.0011 h⁻¹; half-life [5]: 0.00833 days
6 | poly(HPMA-co-MA-GFLG-N(Me)CH2CH2N(Me)CH2C(O)NHC(O)2-fumagill-6-yl) | fumagillol, carbamoylfumagillol, fumagil-6-yl methyl[2-(methylamino)ethyl]carbamate, and ethyl {2-[(aminoacetyl)(methyl)amino]ethyl}methylcarbamate |  |  |  |  | 
7 | CO[C@@H]1[C@H](OC(=O)N[C@@H](C(N)=O)C(C)C)CC[C@]2(CO2)[C@H]1[C@@]1(C)O[C@@H]1CC=C(C)C [Compound O-7177] |  | 0.215 ng/mL | 0.236 ng/mL | 0.101 ng/mL | 2.14 | 
